The numbers were not newly measured in PMC7070407, “Moringin, A Stable Isothiocyanate from Moringa oleifera, Activates the Somatosensory and Pain Receptor TRPA1 Channel In Vitro” (Molecules, 2020), which cites them from elsewhere.

The series concerns the target T1, rat TRPA1 (Rattus norvegicus, UniProt Q6RI86).
T1 construct: expressed in transfected cells; host or cells: HEK-293
On the set-up: method as in PMID 28903060. As to conditions: TRPA1 in vitro; cited from earlier work.

pEC50: −log10 of the molar value.

T1 sequence (Q6RI86 whole entry): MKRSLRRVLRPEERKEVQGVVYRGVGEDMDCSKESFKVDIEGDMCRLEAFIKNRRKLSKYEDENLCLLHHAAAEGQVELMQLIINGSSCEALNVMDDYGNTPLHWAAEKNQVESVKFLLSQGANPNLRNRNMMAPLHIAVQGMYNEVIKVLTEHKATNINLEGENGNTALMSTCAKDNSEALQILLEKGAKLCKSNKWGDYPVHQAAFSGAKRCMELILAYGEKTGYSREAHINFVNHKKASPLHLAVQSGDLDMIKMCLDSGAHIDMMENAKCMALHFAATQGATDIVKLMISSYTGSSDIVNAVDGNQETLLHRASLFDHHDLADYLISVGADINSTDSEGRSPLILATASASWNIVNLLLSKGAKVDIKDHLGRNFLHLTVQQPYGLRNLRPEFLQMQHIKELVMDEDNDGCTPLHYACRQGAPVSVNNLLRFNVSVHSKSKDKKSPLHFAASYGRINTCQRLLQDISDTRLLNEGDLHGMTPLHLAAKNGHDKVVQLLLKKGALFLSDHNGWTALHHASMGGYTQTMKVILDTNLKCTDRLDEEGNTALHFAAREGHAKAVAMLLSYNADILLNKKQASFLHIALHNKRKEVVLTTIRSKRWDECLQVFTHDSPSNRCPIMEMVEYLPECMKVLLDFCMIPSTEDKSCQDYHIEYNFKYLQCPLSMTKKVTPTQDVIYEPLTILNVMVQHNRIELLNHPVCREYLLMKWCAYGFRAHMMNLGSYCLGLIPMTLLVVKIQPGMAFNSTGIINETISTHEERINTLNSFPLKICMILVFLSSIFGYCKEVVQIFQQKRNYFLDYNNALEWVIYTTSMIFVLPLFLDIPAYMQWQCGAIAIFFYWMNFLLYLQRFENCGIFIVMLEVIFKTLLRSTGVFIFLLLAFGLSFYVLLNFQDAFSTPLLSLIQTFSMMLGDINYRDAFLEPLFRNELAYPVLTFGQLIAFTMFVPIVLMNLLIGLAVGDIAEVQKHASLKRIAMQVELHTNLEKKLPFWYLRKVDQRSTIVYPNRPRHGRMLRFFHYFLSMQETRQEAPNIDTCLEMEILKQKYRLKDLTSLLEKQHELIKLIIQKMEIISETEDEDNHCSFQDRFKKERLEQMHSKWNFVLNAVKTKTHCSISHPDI

With `COc1cc(/C=C/C(=O)CC(=O)/C=C/c2ccc(O)c(OC)c2)ccc1O` [curcumin], the negative logarithm of the EC50 (pEC50) is 5.48.
